In brackets after ≈: the same amount, converted by molar mass. Entries after “also recorded” stand apart in the source; their conditions may differ. Read-outs that look alike come from different tables or passages of the source.
Experiments:
[1] = stability studies: HPLC purity after storage at 40° C./75% relative humidity; assay type: physicochemical
[2] = pH 7; cited from earlier work
[3] = cited from earlier work
[4] = after 1 week at 40° C./75% R.H.

| Compound | decrease of HPLC purity [1, 4] | decrease of HPLC purity ([1]; after 2 weeks at 40° C./75% R.H.) [%] | decrease of HPLC purity per week ([1]; storage at 40° C./75% relative humidity, over 2 weeks) [% per week] | decrease of HPLC purity ([1]; after 4 weeks at 40° C./75% R.H.) [%] | octanol/aqueous phosphate buffer partition coefficient (log p) [2] | aqueous solubility ([3]; pH 2.0) [mg/mL] | aqueous solubility ([3]; pH 7.2) [mg/mL] |
| --- | --- | --- | --- | --- | --- | --- | --- |
| CC(C)(C)C(=O)OCOP(=O)(COCCn1cnc2c(N)ncnc21)OCOC(=O)C(C)(C)C [amorphous adefovir dipivoxil, 9-[2-[[bis[(pivaloyloxy)methoxy]phosphinyl]-methoxy]ethyl]adenine] | more than 1% | 2 | 1 |  |  |  |  |
| CC(C)(C)C(=O)OCOP(=O)(COCCn1cnc2c(N)ncnc21)OCOC(=O)C(C)(C)C.NC(=O)c1cccnc1 [ADE:NIC, adefovir dipivoxil:nicotinamide] | no decrease; also recorded: unchanged |  |  | 0.06 |  |  |  |
| CC(C)(C)C(=O)OCOP(=O)(COCCn1cnc2c(N)ncnc21)OCOC(=O)C(C)(C)C [Adefovir dipivoxil, 9-[2-[[bis[(pivaloyloxy)methoxy]phosphinyl]-methoxy]ethyl]adenine] |  |  |  |  | 1.91 | 19 (≈ 37.9 mM) | 0.4 (≈ 0.798 mM) |
